Measured values published in the supplement of paper PMC10307832.

Assays:
Assay in all cases: relative viability (nuclei count vs DMSO), 5 days (fraction); higher = more cells survive
IMD-0354 + Pictilisib = compound: O=C(Nc1cc(C(F)(F)F)cc(C(F)(F)F)c1)c1cc(Cl)ccc1O [IMD-0354] + CS(=O)(=O)N1CCN(Cc2cc3nc(-c4cccc5[nH]ncc45)nc(N4CCOCC4)c3s2)CC1 [Pictilisib] (partner 1 µM)
Outline: (§1)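 Lung cancer cell lines were seeded in 1536-well plates and dosed by pin tool the next day, with either a single drug or a fixed anchor-drug dose combined with five library-drug doses (not always all listed) spaced in √10 steps. Five days later, one step fixed the cells and stained their nuclei (final 0.05% Triton X-100, 1% formaldehyde, 1 ug/ml Hoechst), and nuclei were counted on 4× images. Relative viability is the nuclei count in treated wells divided by the count in vehicle wells, and each value is the median of duplicate plates.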

CX-5461 + Palbociclib = compound: Cc1cnc(CNC(=O)c2c(=O)c3ccc(N4CCCN(C)CC4)nc3n3c2sc2ccccc23)cn1 [CX-5461] + CC(=O)c1c(C)c2cnc(Nc3ccc(N4CCNCC4)cn3)nc2n(C2CCCC2)c1=O [Palbociclib] (partner 0.5 µM)
Outline: as §1

IMD-0354 + Pemetrexed = compound: O=C(Nc1cc(C(F)(F)F)cc(C(F)(F)F)c1)c1cc(Cl)ccc1O [IMD-0354] + Nc1nc2[nH]cc(CCc3ccc(C(=O)N[C@@H](CCC(=O)O)C(=O)O)cc3)c2c(=O)[nH]1 [Pemetrexed] (partner 0.2 µM)
Outline: as §1

CX-5461 + Alpelisib = compound: Cc1cnc(CNC(=O)c2c(=O)c3ccc(N4CCCN(C)CC4)nc3n3c2sc2ccccc23)cn1 [CX-5461] + Cc1nc(NC(=O)N2CCC[C@H]2C(N)=O)sc1-c1ccnc(C(C)(C)C(F)(F)F)c1 [Alpelisib] (partner 2 µM)
Outline: as §1

Cell Line	relative viability (IMD-0354 + Pictilisib; first compound 0.04 µM)	relative viability (IMD-0354 + Pictilisib; first compound 0.1265 µM)	relative viability (IMD-0354 + Pictilisib; first compound 0.4 µM)	relative viability (IMD-0354 + Pictilisib; first compound 1.265 µM)	relative viability (IMD-0354 + Pictilisib; first compound 4 µM)	relative viability (CX-5461 + Palbociclib; first compound 0.01 µM)	relative viability (CX-5461 + Palbociclib; first compound 0.03162 µM)	relative viability (CX-5461 + Palbociclib; first compound 0.1 µM)	relative viability (CX-5461 + Palbociclib; first compound 0.3162 µM)	relative viability (CX-5461 + Palbociclib; first compound 1 µM)	relative viability (IMD-0354 + Pemetrexed; first compound 0.04 µM)	relative viability (IMD-0354 + Pemetrexed; first compound 0.1265 µM)	relative viability (IMD-0354 + Pemetrexed; first compound 0.4 µM)	relative viability (IMD-0354 + Pemetrexed; first compound 1.265 µM)	relative viability (IMD-0354 + Pemetrexed; first compound 4 µM)	relative viability (CX-5461 + Alpelisib; first compound 0.01 µM)	relative viability (CX-5461 + Alpelisib; first compound 0.03162 µM)	relative viability (CX-5461 + Alpelisib; first compound 0.1 µM)	relative viability (CX-5461 + Alpelisib; first compound 0.3162 µM)	relative viability (CX-5461 + Alpelisib; first compound 1 µM)
NCI-H2009	1	0.844	0.618	0.114	0.0666	0.214	0.201	0.272	0.215	0.16	0.934	1	0.722	0.324	0.124	1.12	1.14	1.12	1.13	0.681
HCC-15	0.632	0.696	0.437	0.14	0.133	0.705	0.759	0.808	0.725	0.592	0.211	0.215	0.198	0.175	0.172	0.937	0.905	0.91	0.89	0.779
HCC-44	0.634	0.534	0.415	0.12	0.156	0.906	1.05	0.969	0.926	0.953	0.733	0.692	0.595	0.354	0.344	0.752	0.991	0.839	0.827	0.753
COR-L23	0.636	0.646	0.371	0.131	0.211	0.27	0.269	0.233	0.234	0.125	0.205	0.202	0.206	0.182	0.108	0.81	0.921	0.649	0.725	0.342
HCC-78	0.179	0.204	0.207	0.095	0.126	0.503	0.453	0.444	0.508	0.429	0.972	0.885	0.637	0.96	0.902	0.338	0.328	0.348	0.263	0.334
NCI-H2087	0.711	0.979	0.43	0.198	0.228	0.179	0.224	0.258	0.254	0.268	0.721	0.688	0.345	0.0911	0.106	1.02	1.03	1.07	1.34	0.583
BEN	0.639	0.57	0.369	0.294	0.211	0.497	0.441	0.433	0.5	0.437	0.815	0.758	0.506	0.373	0.322	1.14	1.04	1.14	1.07	0.92
LCLC-103H	0.676	0.655	0.521	0.544	0.345	0.496	0.493	0.458	0.466	0.464	0.518	0.491	0.446	0.317	0.266	1.04	0.925	0.985	1.03	0.921
EKVX	0.477	0.465	–	0.389	0.174	0.399	0.396	0.406	–	0.298	0.456	0.347	–	0.234	0.201	0.93	0.865	0.902	–	0.883
LXF-289	0.798	0.787	0.524	0.157	0.0919	0.596	0.592	0.629	–	0.592	0.898	0.884	0.868	0.26	0.129	1.03	1.07	1.06	0.916	1.02
NCI-H650	1.09	0.89	0.597	0.415	0.239	0.319	0.362	0.334	0.336	0.323	1.05	0.97	0.793	0.436	0.169	1.1	1.16	1.18	1.16	0.977
NCI-H2085	0.404	0.422	0.424	0.309	0.303	0.453	0.466	0.477	0.454	0.457	0.954	0.846	0.644	0.294	0.276	0.965	0.935	0.96	1.02	0.853
NCI-H1944	0.351	0.341	–	0.234	0.151	0.335	0.362	0.338	0.294	0.317	0.593	0.683	0.642	0.146	0.122	0.806	0.936	0.808	–	0.831
LC-2-ad	0.494	0.424	0.404	0.106	0.136	0.474	0.552	0.42	0.469	0.47	0.29	0.268	0.276	0.189	0.145	0.885	0.9	0.805	0.981	0.561
COR-L 105	0.439	0.351	0.303	0.278	0.293	0.414	0.403	0.393	0.319	0.357	1.14	1.23	0.802	0.699	0.402	1.14	0.942	1.26	0.851	0.414
NCI-H1355	0.619	0.404	0.327	0.196	0.206	0.424	0.467	0.41	0.417	0.388	1.07	1.1	0.673	0.527	0.216	0.867	0.82	0.928	0.758	0.878

Cell Line	relative viability (IMD-0354 + Pictilisib; first compound 0.04 µM)	relative viability (IMD-0354 + Pictilisib; first compound 0.1265 µM)	relative viability (IMD-0354 + Pictilisib; first compound 0.4 µM)	relative viability (IMD-0354 + Pictilisib; first compound 1.265 µM)	relative viability (IMD-0354 + Pictilisib; first compound 4 µM)	relative viability (CX-5461 + Palbociclib; first compound 0.01 µM)	relative viability (CX-5461 + Palbociclib; first compound 0.03162 µM)	relative viability (CX-5461 + Palbociclib; first compound 0.1 µM)	relative viability (CX-5461 + Palbociclib; first compound 0.3162 µM)	relative viability (CX-5461 + Palbociclib; first compound 1 µM)	relative viability (IMD-0354 + Pemetrexed; first compound 0.04 µM)	relative viability (IMD-0354 + Pemetrexed; first compound 0.1265 µM)	relative viability (IMD-0354 + Pemetrexed; first compound 0.4 µM)	relative viability (IMD-0354 + Pemetrexed; first compound 1.265 µM)	relative viability (IMD-0354 + Pemetrexed; first compound 4 µM)	relative viability (CX-5461 + Alpelisib; first compound 0.01 µM)	relative viability (CX-5461 + Alpelisib; first compound 0.03162 µM)	relative viability (CX-5461 + Alpelisib; first compound 0.1 µM)	relative viability (CX-5461 + Alpelisib; first compound 0.3162 µM)	relative viability (CX-5461 + Alpelisib; first compound 1 µM)
H3255	0.469	0.421	0.342	0.34	0.251	0.282	0.353	0.299	0.305	0.302	0.588	0.587	0.518	0.426	0.318	0.763	0.819	0.727	0.403	0.73
NCI-H1993	0.773	0.783	0.706	0.617	0.662	0.686	0.627	0.699	0.583	0.614	0.578	0.565	0.518	0.344	0.412	0.721	0.706	0.667	0.577	0.605
NCI-H1734	0.495	0.51	0.339	0.209	0.143	0.325	0.391	0.34	0.317	0.292	0.449	0.458	0.369	0.23	0.129	0.772	0.789	0.665	0.559	0.615
HOP-62	0.958	0.804	0.346	0.237	0.0877	0.415	0.446	0.461	0.413	0.415	0.348	0.308	0.268	0.141	0.0739	1.12	1.09	1	1.35	1.05
LOU-NH91	0.556	0.591	0.259	0.203	0.209	0.516	0.557	0.513	0.439	0.478	0.359	0.472	0.25	0.206	0.304	0.812	0.739	0.703	0.677	0.64
NCI-H2228	0.388	0.367	0.217	0.365	0.247	0.709	0.612	0.563	0.73	0.115	0.379	0.37	0.292	0.22	0.125	0.709	0.884	0.504	0.591	0.234
PC-14	1.05	0.713	–	0.409	0.132	0.467	0.466	0.239	0.492	0.0872	0.128	0.116	0.105	0.14	0.0524	0.947	1.23	1.05	0.933	0.883
NCI-H1437	0.492	0.381	0.442	0.153	0.185	0.278	0.328	0.346	0.308	0.279	0.321	0.338	0.221	0.191	0.202	0.979	0.941	–	0.913	0.801
NCI-H460	0.438	0.48	0.184	0.0352	0.0702	0.221	0.0725	0.0509	0.0722	0.0229	0.0638	0.0692	0.0923	0.0741	0.0289	0.484	0.489	0.0913	0.402	0.0154
NCI-H1666	0.308	0.434	0.295	0.176	0.201	0.63	0.624	0.678	0.626	0.572	0.905	1	0.708	0.832	0.824	1.01	0.983	–	0.924	0.416
NCI-H1651	0.663	0.461	0.34	0.068	0.0829	0.455	0.517	0.536	0.513	0.526	0.653	0.647	0.38	0.14	0.116	–	0.79	–	0.665	0.115
NCI-H1755	0.562	0.422	0.335	0.232	0.22	0.434	0.449	0.431	0.447	0.466	0.458	0.407	0.387	0.375	0.291	0.899	1.01	0.929	0.973	0.919
NCI-H661	0.416	0.418	0.34	0.264	0.252	0.418	0.374	0.368	0.367	0.337	0.955	0.921	0.484	0.331	0.207	0.805	0.674	0.876	–	0.588
HARA	0.598	0.3	0.393	0.116	0.193	0.24	0.227	0.331	0.228	0.253	0.318	0.271	0.207	0.202	0.151	0.926	0.84	0.865	0.73	0.799
NCI-H23	0.53	0.472	0.306	0.188	0.165	0.48	0.584	0.499	0.576	0.43	0.78	0.693	0.324	0.18	0.235	0.616	0.865	0.717	0.689	0.586
LCLC-97TM1	–	0.145	0.142	0.128	0.103	0.211	0.254	0.198	0.208	0.227	0.202	0.162	0.102	0.0974	0.0756	0.233	0.269	0.217	–	0.245
